Measurements as given in US20160002226A1, “PYRI[…] AND THEIR USE IN THE TREATMENT, AMELIORATION OR PREVENTION OF INFLUENZA” (F. Hoffmann-La Roche AG, priority 2014, published 2016).

Experiments:
[1] = test system: influenza A virus A/Aichi/2/68 (H3N2) on MDCK cells; assay: Cytopathic effect (CPE) assay; assay type: cell-based; settings: for IC50: Influenza A virus, 48 hrs; for CPE (% CPE reduction): @ 50 μM
[2] = biological target: T1, influenza A virus (IAV) PA-Nter fragment (amino acids 1-209) (Influenza A virus, UniProt P31343); assay: FRET endonuclease activity assay; assay type: biochemical; settings: PA-Nter 0.5 μM, 1.6 μM RNA substrate
T1 construct: PA-Nter fragment (amino acids 1-209); made in house

[3] = biological target: whole RNP complex of IAV strain A/PR/8/34 (Influenza A virus, UniProt P03433); assay: Transcription assay (TA assay); assay type: biochemical; settings: RNPs of A/PR/8/34, capped RNA substrate

Row | Compound | IC50 ([1]; the 1st table) [nM] | IC50 [2] [nM] | other results
1 | CCCN(Cc1cc(=O)c(O)c2n1CCN(C(C)C)C2=O)C(=O)C1CC1 | > 50000 |  | 
2 | CC(C)N1CCn2c(CNS(=O)(=O)c3ccccc3F)cc(=O)c(O)c2C1=O | > 50000 | 104 | 
3 | CC(C)N1CCn2c(CN)cc(=O)c(O)c2C1=O | > 50000 | 493 | 
4 | CCCN(Cc1cccc(-c2ccccc2)c1)Cc1cc(=O)c(O)c2n1CCN(C(C)C)C2=O |  |  | IC50 ([1]; the 2nd table): > 50000 nM; IC50 [3]: 690 nM
5 | CCCN(Cc1cc(=O)c(O)c2n1CCN(C(C)C)C2=O)CC1(c2ccccc2)CCCC1 |  |  | IC50 ([1]; the 2nd table): > 50000 nM; IC50 [3]: 452 nM
6 | CCN(Cc1ccc(Cl)cc1)Cc1cc(=O)c(O)c2n1CCN(C(C)C)C2=O.O=C(O)C(F)(F)F |  |  | CPE (% CPE reduction) [1]: 18% @ 50 μM; IC50 [3]: 682 nM
7 | CC(C)N1CCn2c(CN(C)S(=O)(=O)c3ccccc3)cc(=O)c(O)c2C1=O | > 50000 | 200 | 
8 | CCCN(Cc1cc(=O)c(O)c2n1CCN(C(C)C)C2=O)C(C)=O | > 50000 |  | 
9 | CC(C)CS(=O)(=O)NCc1cc(=O)c(O)c2n1CCN(C(C)C)C2=O | > 50000 | 211 | 
10 | CC(C)N1CCn2c(CNC(=O)C34CCC(CO)(CC3)CC4)cc(=O)c(O)c2C1=O | > 50000 | 1870 | 
11 | CCCN(Cc1cc(=O)c(O)c2n1CCN(C(C)C)C2=O)C1(c2ccccc2)CCCC1 |  |  | IC50 ([1]; the 2nd table): > 50000 nM; IC50 [3]: 870 nM
12 | CC(C)N1CCn2c(CN(Cc3cccc4ccccc34)C(=O)C3CC(F)(F)C3)cc(=O)c(O)c2C1=O |  |  | IC50 ([1]; the 2nd table): > 50000 nM; IC50 [3]: 253 nM
13 | CC(C)N1CCn2c(CN(C(=O)Cc3ccc(F)cc3F)C3CCCCC3)cc(=O)c(O)c2C1=O | > 50000 | 580 | 
14 | CC(C)N1CCn2c(CNS(=O)(=O)c3ccc(Cl)cc3Cl)cc(=O)c(O)c2C1=O | > 50000 | 144 | 
15 | CC(C)N1CCn2c(CN(C)Cc3cccc(Cl)c3)cc(=O)c(O)c2C1=O.O=C(O)C(F)(F)F |  |  | CPE (% CPE reduction) [1]: 30.8% @ 50 μM; IC50 [3]: 81 nM
16 | CC(C)N1CCn2c(CN(Cc3ccccc3)c3ccccc3)cc(=O)c(O)c2C1=O |  | 1180 | 
17 | CC(C)N1CCn2c(CNS(=O)(=O)c3ccccc3Cl)cc(=O)c(O)c2C1=O | > 50000 | 87 | 
18 | CN1CCn2c(CNS(=O)(=O)c3cccc(Cl)c3)cc(=O)c(O)c2C1=O | > 50000 | 82 | 
19 | CC(C)N1CCn2c(CNC(=O)C3(c4ccc(Cl)cc4)CCCC3)cc(=O)c(O)c2C1=O | > 50000 | 840 | 
20 | CC(C)N1CCn2c(CN(Cc3cccc4ccccc34)C3CC3)cc(=O)c(O)c2C1=O | > 50000 |  | 
21 | Cc1noc(C)c1S(=O)(=O)NCc1cc(=O)c(O)c2n1CCN(C(C)C)C2=O | > 50000 | 182 | 
22 | CCN(Cc1cccc2ccccc12)Cc1cc(=O)c(O)c2n1CCN(C(C)C)C2=O |  |  | IC50 ([1]; the 2nd table): > 50000 nM; IC50 [3]: 220 nM
23 | Cc1ccc(S(=O)(=O)NCc2cc(=O)c(O)c3n2CCN(C(C)C)C3=O)cc1 | > 50000 | 203 | 
24 | CC(C)N1CCn2c(CNS(=O)(=O)Cc3ccc(Cl)cc3)cc(=O)c(O)c2C1=O | > 50000 | 603 | 
25 | CC(C)N1CCn2c(CN(C)Cc3ccc(Cl)cc3)cc(=O)c(O)c2C1=O |  |  | IC50 ([1]; the 2nd table): > 50000 nM; IC50 [3]: 2110 nM
26 | CC(C)N1CCn2c(CNC3c4ccccc4CCc4ccccc43)cc(=O)c(O)c2C1=O | > 50000 | 3620 | 

Row | Compound | IC50 ([1]; the 1st table) [nM] | IC50 [2] [nM] | other results
27 | Cc1ccccc1S(=O)(=O)NCc1cc(=O)c(O)c2n1CCN(C)C2=O | > 50000 | 48 | 
28 | CC(C)N1CCn2c(CN(Cc3ccccc3)Cc3ccccc3)cc(=O)c(O)c2C1=O | > 50000 | 1550 | 
29 | CC(C)N1CCn2c(CN(Cc3cccc(Cl)c3)C3CC3)cc(=O)c(O)c2C1=O |  |  | IC50 ([1]; the 2nd table): > 50000 nM; IC50 [3]: 171 nM
30 | CC(C)N1CCn2c(CNC(=O)CC34C[C@H]5C[C@@H](C3)C[C@@H](C4)C5)cc(=O)c(O)c2C1=O | > 50000 | 1680 | 
31 | CCCN(Cc1cc(=O)c(O)c2n1CCN(C(C)C)C2=O)C(=O)C1CCCCC1 | > 50000 |  | 
32 | CC(C)N1CCn2c(CN(Cc3ccc(-c4ccccc4)cc3)C3CC3)cc(=O)c(O)c2C1=O |  |  | IC50 ([1]; the 2nd table): > 50000 nM; IC50 [3]: 5310 nM
33 | CC(C)N1CCn2c(CN(Cc3ccccc3)C(=O)C3CC(F)(F)C3)cc(=O)c(O)c2C1=O |  |  | IC50 ([1]; the 2nd table): > 50000 nM; IC50 [3]: 2980 nM
34 | CC(C)N1CCn2c(CNS(=O)(=O)c3cccc4ccccc34)cc(=O)c(O)c2C1=O | > 50000 | 124 | 
35 | CC(C)N1CCn2c(CNC(=O)c3ccc(Cl)cc3)cc(=O)c(O)c2C1=O | > 50000 | 245 | 
36 | CCCN(Cc1ccccc1-c1ccccc1)Cc1cc(=O)c(O)c2n1CCN(C(C)C)C2=O.O=C(O)C(F)(F)F |  |  | IC50 ([1]; the 2nd table): > 50000 nM; TA IC50 [3]: in- soluble
37 | CC(C)N1CCn2c(CN(Cc3cccc(-c4ccccc4)c3)C3CC3)cc(=O)c(O)c2C1=O |  |  | IC50 ([1]; the 2nd table): > 50000 nM; IC50 [3]: 533 nM
38 | CC(C)N1CCn2c(CNS(=O)(=O)c3ccc(C#N)cc3)cc(=O)c(O)c2C1=O | > 50000 | 322 | 
39 | CCCN(Cc1cccc2ccccc12)Cc1cc(=O)c(O)c2n1CCN(C(C)C)C2=O |  |  | IC50 ([1]; the 2nd table): > 50000 nM; IC50 [3]: 1020 nM
40 | CC(C)N1CCn2c(CNC(=O)c3ccc(C(F)(F)F)cc3)cc(=O)c(O)c2C1=O | > 50000 | 9450 | 
41 | CC(C)N1CCn2c(CNC(=O)CC(C)(C)C)cc(=O)c(O)c2C1=O | > 50000 | 380 | 
42 | CC(C)N1CCn2c(CNS(=O)(=O)c3cccc(F)c3)cc(=O)c(O)c2C1=O | > 50000 | 153 | 
43 | CC(C)N1CCn2c(CNC(=O)c3ccccc3)cc(=O)c(O)c2C1=O | > 50000 |  | FRET IC50 [2]: insoluble
44 | CC(=O)N(Cc1cc(=O)c(O)c2n1CCN(C(C)C)C2=O)C1CCCCC1 | > 50000 | 48 | 
45 | CC(=O)N(Cc1ccccc1)Cc1cc(=O)c(O)c2n1CCN(C(C)C)C2=O | > 50000 | 44 | 
46 | CC(C)N1CCn2c(CNC(=O)c3cccn3C)cc(=O)c(O)c2C1=O | > 50000 | 310 | 
47 | CC(C)N1CCn2c(CNS(=O)(=O)N(C)C)cc(=O)c(O)c2C1=O | > 50000 | 90 | 
48 | CC(C)N1CCn2c(CNS(=O)(=O)Cc3ccccc3)cc(=O)c(O)c2C1=O | > 50000 | 187 | 
49 | CC(C)N1CCn2c(CNS(=O)(=O)c3ccc(Cl)cc3)cc(=O)c(O)c2C1=O | > 50000 | 209 | 
50 | CC(C)N1CCn2c(CN(Cc3ccccc3-c3ccccc3)C3CC3)cc(=O)c(O)c2C1=O | > 50000 |  | 
51 | CCCN(Cc1ccccc1)Cc1cc(=O)c(O)c2n1CCN(C(C)C)C2=O | > 50000 | 390 | 
52 | CC(C)N1CCn2c(CNC(=O)C3CCCCC3)cc(=O)c(O)c2C1=O | > 50000 | 360 | 

Row | Compound | IC50 ([1]; the 1st table) [nM] | IC50 [2] [nM] | other results
53 | CC(C)N1CCn2c(CN(C)Cc3ccccc3)cc(=O)c(O)c2C1=O |  |  | IC50 ([1]; the 2nd table): > 50000 nM; IC50 [3]: 804 nM
54 | CC(C)N1CCn2c(CN(C)Cc3ccc(-c4ccccc4)cc3)cc(=O)c(O)c2C1=O |  |  | IC50 ([1]; the 2nd table): > 50000 nM; IC50 [3]: 11700 nM
55 | CC(C)N1CCn2c(CN(Cc3ccccc3-c3ccccc3)C(=O)C3CC(F)(F)C3)cc(=O)c(O)c2C1=O |  |  | IC50 ([1]; the 2nd table): > 50000 nM; IC50 [3]: 229 nM
56 | CC(C)N1CCn2c(CNS(=O)(=O)c3cccc(Cl)c3)cc(=O)c(O)c2C1=O | > 50000 | 62 | 
57 | CC(C)N1CCn2c(CNC(=O)CC3CC3)cc(=O)c(O)c2C1=O | > 50000 | 300 | 
58 | CN1CCn2c(CNS(=O)(=O)c3ccccc3)cc(=O)c(O)c2C1=O | > 50000 | 27 | 
59 | CC(C)N1CCn2c(CNC(c3ccccc3)c3ccccc3)cc(=O)c(O)c2C1=O | > 50000 | 1130 | 
60 | CCCN(Cc1cc(=O)c(O)c2n1CCN(C(C)C)C2=O)C(=O)c1ccccc1 | > 50000 |  | 
61 | CC(C)N1CCn2c(CNC(=O)CCC(F)(F)F)cc(=O)c(O)c2C1=O | > 50000 | 250 | 
62 | CC(C)N1CCn2c(CN(C)C)cc(=O)c(O)c2C1=O | > 50000 | 92 | 
63 | CC(C)N1CCn2c(CNS(=O)(=O)c3cn(C)cn3)cc(=O)c(O)c2C1=O | > 50000 | 260 | 
64 | CC(C)N1CCn2c(CNS(=O)(=O)c3c(Cl)cccc3Cl)cc(=O)c(O)c2C1=O | > 50000 | 119 | 
65 | CC(C)CC(=O)N(Cc1cc(=O)c(O)c2n1CCN(C(C)C)C2=O)C1CCCCC1 | > 50000 | 469 | 
66 | CC(C)N1CCn2c(CNC(=O)C3CC(F)(F)C3)cc(=O)c(O)c2C1=O | > 50000 |  | 
67 | CN1CCn2c(CNS(=O)(=O)c3ccc(Cl)cc3)cc(=O)c(O)c2C1=O | > 50000 | 130 | 
68 | CC(C)N1CCn2c(CN(Cc3ccccc3)C(=O)c3ccccc3)cc(=O)c(O)c2C1=O | > 50000 | 315 | 
69 | CC(C)N1CCn2c(CNC3CCCCC3)cc(=O)c(O)c2C1=O | > 50000 | 497 | 
70 | CC(C)N1CCn2c(CNC(=O)[C@]34C[C@H]5C[C@H](C[C@H](C5)C3)C4)cc(=O)c(O)c2C1=O | > 50000 | 1430 | 
71 | CC(C)N1CCn2c(CNC(=O)c3ccc(C#N)cc3)cc(=O)c(O)c2C1=O | > 50000 | 400 | 
72 | CC(C)N1CCn2c(CNC3(c4ccccc4)CCCC3)cc(=O)c(O)c2C1=O | > 50000 |  | 
73 | CC(C)N1CCn2c(CNS(=O)(=O)C3CC3)cc(=O)c(O)c2C1=O | > 50000 | 181 | 
74 | CC(C)N1CCn2c(CNS(=O)(=O)c3ccccc3)cc(=O)c(O)c2C1=O | > 50000 | 130 | 
75 | CC(C)N1CCn2c(CNC(=O)C3CC3)cc(=O)c(O)c2C1=O | > 50000 | 350 | 
76 | CC(C)N1CCn2c(CNS(=O)(=O)c3ccc(Cl)cc3F)cc(=O)c(O)c2C1=O | > 50000 | 223 | 
77 | CC(C)N1CCn2c(CNC(=O)CC(F)(F)F)cc(=O)c(O)c2C1=O | > 50000 | 320 | 
78 | Cc1cccc(C(=O)NCc2cc(=O)c(O)c3n2CCN(C(C)C)C3=O)c1 | > 50000 | 1070 | 
